Data: ChEMBL document CHEMBL1201862, “PubChem BioAssay data set” (2004)
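Exposure lasted 48 hours, with cells grown in 96-well plates and compounds tested at five concentrations. GI50 marks 50% less growth.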 Active and inactive are the calls of the source. Cut-off read from the data, not from the text of the source: active = GI50 up to about 1.1 µM and inactive = higher.

How the values were obtained:
Assay in all cases: growth of human tumour cells (NCI), 48 h
[1] = system: UACC-62
[2] = system: SR
[3] = system: UACC-257
[4] = system: NCI-H226
[5] = system: U-251
[6] = system: LXFL 529
[7] = system: UO-31
[8] = system: ACHN
[9] = system: MOLT-4
[10] = system: HOP-92
[11] = system: SNB-19
[12] = system: SK-MEL-5
[13] = system: HT-29
[14] = system: SNB-78
[15] = system: SF-268
[16] = system: SK-MEL-2
[17] = system: NCI-H460
[18] = system: CCRF-CEM
[19] = system: A549
[20] = system: M19-MEL
[21] = system: NCI-H522
[22] = system: DMS-273
[23] = system: K562
[24] = system: HCT-116
[25] = system: OVCAR-8
[26] = system: XF498
[27] = system: TK-10
[28] = system: SK-OV-3
[29] = system: KM-20L2
[30] = system: IGROV-1
[31] = system: SK-MEL-28
[32] = system: HCT-15
[33] = system: SF-539
[34] = system: SN12C
[35] = system: LOX IMVI
[36] = system: HOP-62
[37] = system: HL-60
[38] = system: EKVX
[39] = system: SW-620
[40] = system: RXF 393
[41] = system: SF-295
[42] = system: A498
[43] = system: HCC 2998
[44] = system: KM12
[45] = system: OVCAR-5
[46] = system: OVCAR-3
[47] = system: NCI-H23
[48] = system: M14
[49] = system: CAKI-1
[50] = system: OVCAR-4
[51] = system: DLD-1
[52] = system: DMS-114
[53] = system: Malme-3M
[54] = system: 786-0
[55] = system: COLO 205
[56] = system: RPMI-8226
[57] = system: SNB-75

`CCN(CC)/[N+]([O-])=N/OC` was tested, and the GI50 [1] was > 100 µM (inactive), the GI50 [2] was > 100 µM (inactive) and the GI50 [3] was > 100 µM (inactive). The GI50 [4] was > 100 µM (inactive), the GI50 [5] was > 100 µM (inactive) and the GI50 [6] was > 100 µM (inactive). For the same compound, the GI50 [7] was > 100 µM (inactive), the GI50 [8] was > 100 µM (inactive) and the GI50 [9] was > 100 µM (inactive). For the same compound, the GI50 [10] was > 100 µM (inactive), the GI50 [11] was > 100 µM (inactive) and the GI50 [12] was > 100 µM (inactive). The GI50 [13] was > 100 µM (inactive), the GI50 [14] was > 100 µM (inactive) and the GI50 [15] was > 100 µM (inactive). For the same compound, the GI50 [16] was > 100 µM (inactive), the GI50 [17] was > 100 µM (inactive) and the GI50 [18] was > 100 µM (inactive). The GI50 [19] was > 100 µM (inactive), the GI50 [20] was > 100 µM (inactive) and the GI50 [21] was > 100 µM (inactive). For the same compound, the GI50 [22] was > 100 µM (inactive), the GI50 [23] was > 100 µM (inactive) and the GI50 [24] was > 100 µM (inactive). The GI50 [25] was > 100 µM (inactive), the GI50 [26] was > 100 µM (inactive) and the GI50 [27] was > 100 µM (inactive). The GI50 [28] was > 100 µM (inactive), the GI50 [29] was > 100 µM (inactive) and the GI50 [30] was > 100 µM (inactive). For the same compound, the GI50 [31] was > 100 µM (inactive), the GI50 [32] was > 100 µM and the GI50 [33] was > 100 µM (inactive). For the same compound, the GI50 [34] was > 100 µM (inactive), the GI50 [35] was > 100 µM (inactive) and the GI50 [36] was > 100 µM (inactive). The GI50 [37] was > 100 µM (inactive), the GI50 [38] was > 100 µM (inactive) and the GI50 [39] was > 100 µM (inactive). For the same compound, the GI50 [40] was > 100 µM (inactive), the GI50 [41] was > 100 µM (inactive) and the GI50 [42] was > 100 µM (inactive). For the same compound, the GI50 [43] was > 100 µM (inactive), the GI50 [44] was > 100 µM (inactive) and the GI50 [45] was > 100 µM (inactive). For the same compound, the GI50 [46] was > 100 µM (inactive), the GI50 [47] was > 100 µM (inactive) and the GI50 [48] was > 100 µM (inactive).

In the case of `CC1(C)C(=O)C(C)(C)C1=S`, the GI50 [1] is reported as > 100 µM (inactive), the GI50 [49] is reported as > 100 µM (inactive) and the GI50 [2] is reported as > 100 µM (inactive). The GI50 [3] was > 100 µM (inactive), the GI50 [4] was > 100 µM (inactive) and the GI50 [5] was > 100 µM (inactive). The GI50 [6] was > 100 µM (inactive), the GI50 [50] was > 100 µM (inactive) and the GI50 [7] was > 100 µM (inactive). For the same compound, the GI50 [51] was > 100 µM (inactive), the GI50 [8] was > 100 µM (inactive) and the GI50 [52] was > 100 µM (inactive). The GI50 [9] was > 100 µM (inactive), the GI50 [11] was > 100 µM (inactive) and the GI50 [53] was > 100 µM (inactive). For the same compound, the GI50 [12] was > 100 µM (inactive), the GI50 [13] was > 100 µM (inactive) and the GI50 [15] was > 100 µM (inactive). For the same compound, the GI50 [16] was > 100 µM (inactive), the GI50 [17] was > 100 µM (inactive) and the GI50 [18] was > 100 µM (inactive). The GI50 [19] was > 100 µM (inactive), the GI50 [54] was > 100 µM (inactive) and the GI50 [20] was > 100 µM (inactive). The GI50 [21] was > 100 µM (inactive), the GI50 [22] was > 100 µM (inactive) and the GI50 [23] was > 100 µM (inactive). For the same compound, the GI50 [24] was > 100 µM (inactive), the GI50 [25] was > 100 µM (inactive) and the GI50 [26] was > 100 µM (inactive). The GI50 [27] was > 100 µM (inactive), the GI50 [28] was > 100 µM (inactive) and the GI50 [29] was > 100 µM (inactive). The GI50 [30] was > 100 µM (inactive), the GI50 [31] was > 100 µM (inactive) and the GI50 [32] was > 100 µM. For the same compound, the GI50 [34] was > 100 µM (inactive), the GI50 [35] was > 100 µM (inactive) and the GI50 [36] was > 100 µM (inactive). For the same compound, the GI50 [37] was > 100 µM (inactive), the GI50 [55] was > 100 µM (inactive) and the GI50 [38] was > 100 µM (inactive). The GI50 [39] was > 100 µM (inactive), the GI50 [56] was > 100 µM (inactive) and the GI50 [41] was > 100 µM (inactive). The GI50 [57] was 18.6 µM (inactive), the GI50 [42] was > 100 µM (inactive) and the GI50 [43] was > 100 µM (inactive). For the same compound, the GI50 [44] was > 100 µM (inactive), the GI50 [45] was > 100 µM (inactive) and the GI50 [46] was > 100 µM (inactive). The GI50 [47] was > 100 µM (inactive) and the GI50 [48] was > 100 µM (inactive).

`CCNc1cnc2c(n1)c(=O)n(C)c(=O)n2C` was tested, and the GI50 [1] was > 100 µM (inactive), the GI50 [49] was > 100 µM (inactive) and the GI50 [3] was > 100 µM (inactive). For the same compound, the GI50 [5] was > 100 µM (inactive), the GI50 [6] was > 100 µM (inactive) and the GI50 [50] was > 100 µM (inactive). For the same compound, the GI50 [7] was > 100 µM (inactive), the GI50 [51] was > 100 µM (inactive) and the GI50 [8] was > 100 µM (inactive). For the same compound, the GI50 [52] was > 100 µM (inactive), the GI50 [9] was > 100 µM (inactive) and the GI50 [10] was > 100 µM (inactive). For the same compound, the GI50 [11] was > 100 µM (inactive), the GI50 [53] was > 100 µM (inactive) and the GI50 [12] was > 100 µM (inactive). The GI50 [13] was > 100 µM (inactive), the GI50 [15] was > 100 µM (inactive) and the GI50 [16] was > 100 µM (inactive). For the same compound, the GI50 [17] was > 100 µM (inactive), the GI50 [18] was > 100 µM (inactive) and the GI50 [19] was > 100 µM (inactive). The GI50 [20] was > 100 µM (inactive), the GI50 [21] was > 100 µM (inactive) and the GI50 [22] was > 100 µM (inactive). For the same compound, the GI50 [23] was > 100 µM (inactive), the GI50 [24] was > 100 µM (inactive) and the GI50 [25] was > 100 µM (inactive). The GI50 [26] was > 100 µM (inactive), the GI50 [27] was > 100 µM (inactive) and the GI50 [28] was > 100 µM (inactive). The GI50 [29] was > 100 µM (inactive), the GI50 [30] was > 100 µM (inactive) and the GI50 [31] was > 100 µM (inactive). For the same compound, the GI50 [32] was > 100 µM, the GI50 [33] was > 100 µM (inactive) and the GI50 [34] was > 100 µM (inactive). The GI50 [36] was > 100 µM (inactive), the GI50 [37] was > 100 µM (inactive) and the GI50 [55] was > 100 µM (inactive). For the same compound, the GI50 [38] was 34.1 µM (inactive), the GI50 [39] was > 100 µM (inactive) and the GI50 [40] was 84.9 µM (inactive). The GI50 [56] was > 100 µM (inactive), the GI50 [41] was > 100 µM (inactive) and the GI50 [57] was 48.9 µM (inactive). For the same compound, the GI50 [42] was > 100 µM (inactive), the GI50 [43] was > 100 µM (inactive) and the GI50 [44] was > 100 µM (inactive). The GI50 [45] was > 100 µM (inactive), the GI50 [46] was > 100 µM (inactive) and the GI50 [47] was > 100 µM (inactive). For the same compound, the GI50 [48] was > 100 µM (inactive).
